Test results as given in PMC6104039 (Nature Communications, 2018).
Values joined by “and” are separate entries in the source; they are usually repeats but may differ in a detail not shown here. Equal entries are not always repeated.

What was measured:
[1] = test system: gastrocnemius muscle; assay: Targeted analysis of ceramide, SM and HexCer in gastrocnemius muscle; format: in vivo, mice; parameters: HexCer 18:1/22:0 content of gastrocnemius muscle / SM 34:1 content of gastrocnemius muscle / SM 34:2 content of gastrocnemius muscle / SM 36:2 content of gastrocnemius muscle / SM 36:1 content of gastrocnemius muscle / SM 40:1 content of gastrocnemius muscle / SM 42:2 content of gastrocnemius muscle / SM 42:1 content of gastrocnemius muscle / Cer 18:1/16:0 content of gastrocnemius muscle / Cer 18:1/18:0 content of gastrocnemius muscle / Cer 18:2/18:0 content of gastrocnemius muscle / Cer 18:0/18:0 content of gastrocnemius muscle / Cer 18:1/22:0 content of gastrocnemius muscle / Cer 18:1/24:1 content of gastrocnemius muscle / Cer 18:0/24:1 content of gastrocnemius muscle / Cer 18:1/24:0 content of gastrocnemius muscle / HexCer 18:1/16:0 content of gastrocnemius muscle / HexCer 18:1/18:0 content of gastrocnemius muscle / HexCer 18:1/20:0 content of gastrocnemius muscle: unit not given beside the values
[2] = test system: C57BL6/J mice; assay: Oral glucose tolerance test with labelled glucose and fasting insulin; format: in vivo; details: 5 mg/kg, chow or HFD
Description: Mice were fasted for 6 h, then received 50 mg stable isotope-labeled glucose (6,6-^2H glucose, Sigma Aldrich) by oral gavage. Blood glucose was measured with a glucose meter (Accu-Check, Roche, NSW, Australia) prior to and at 15, 30, 45, 60 and 90 min following gavage. Additional blood (~10 μL) was collected from the tail tip prior to and at 15 and 60 min following glucose gavage. These samples were used to perform mass isotopologue analysis of plasma glucose via gas chromatography–mass spectrometry (GC–MS)[70]. Specifically, plasma glucose was separated into the labelled glucose load and the endogenous (liver/kidney-derived) unlabelled glucose to permit differentiation of glucose disposal from endogenous glucose production (Supplementary Figure 10). Fasting blood insulin was measured using an Ultrasensitive Mouse Insulin ELISA Kit (Crystal Chem, Illinois, USA). […]
endogenous glucose synthesis. Plasma concentration of (a) labelled glucose resulting from an oral glucose load, and (b) endogenous glucose, during the oral glucose tolerance test. Mice

[3] = test system: SkM; assay: Real-time PCR of respiratory complex subunits and regulators of mitochondrial biogenesis in SkM; format: in vivo, mice
Description: PCR (40 cycles) was performed on a LightCycler 480 (Roche) using SensiFAST SYBR mastermix (Bioline). For quantification of CerS1 and CerS2 expression, total RNA was purified from mouse tissues with TRIzol reagent (Sigma-Aldrich), followed by DNase treatment (Promega), and reverse transcribed using random hexamer primers with FirstStrand cDNA synthesis kit (Roche), according to manufacturer’s instructions. CerS1 and CerS2 gene expression was determined using a standard curve of Ct against input cDNA, and normalised to 18s RNA. For mitochondrial genes and transcriptional regulators in SkM, total RNA was prepared with TRIzol, and oligo dT primer was used for reverse transcription. Relative gene expression was determined using the ΔΔCt method, with 36B4 and Rpl13 as the reference genes. Samples with excessively high Ct values (Ct > 30 for the housekeeping genes) were removed from data analysis (two samples for Fig. 6a, four samples for Fig. 6g). Gene-specific primers were as follows: […]

[4] = test system: SkM; assay: Mitochondrial DNA content of SkM by quantitative PCR; format: in vivo, mice
Description: Total DNA was isolated using standard phenol:chloroform extraction, followed by RNase H (NEB) treatment. Relative levels of nuclear and mitochondrial DNA were determined by quantitative PCR on a LightCycler 480 (Roche) using SensiFAST SYBR mastermix (Bioline). Primers for quantification of genomic DNA were: 5′- […]-3′, and 5′- […]-3′; and mitochondrial DNA: 5′- […]-3′, and 5′- […]-3′[73]. Calibration curves of Ct against input DNA were prepared from a pooled sample of mouse SkM DNA, and used to calculate the relative abundance of mitochondrial to nuclear DNA in each sample.

C[C@@](N)(CO)CCc1ccc(OCc2ccc(Cl)c(Cl)c2)cc1 [P053, (S)-2-amino-4-(4-(3,4-dichlorobenzyloxy)phenyl)-2-methylbutan-1-ol]
SM 42:2 content of gastrocnemius muscle ([1]; Chow + P053, individual mice): 288.299 and 175.495 and 168.331 and 87.7791 and 166.49 and 221.175 and 113.727 and 338.716 and 212.277 and 185.512 | Cer 18:0/18:0 content of gastrocnemius muscle ([1]; HFD + P053, individual mice): 6.696 (2×) and 6.991 and 7.614 and 9.306 and 10.4442 and 6.363 and 5.154 and 5.258 and 4.509 | Cer 18:0/24:1 content of gastrocnemius muscle ([1]; HFD + P053, individual mice): 4.519 and 1.914 and 1.715 and 1.673 and 2.381 and 12.1481 and 1.438 and 1.998 and 3.6 and 0.9202 | Cer 18:1/16:0 content of gastrocnemius muscle ([1]; HFD + P053, individual mice): 0.2953 and 0.2425 and 0.247 and 0.3667 and 0.6053 and 1.286 and 0.3154 and 0.1867 and 0.2439 and 0.2642 | Cer 18:1/18:0 content of gastrocnemius muscle ([1]; HFD + P053, individual mice): 21.9657 and 17.6562 and 21.0561 and 17.8475 and 19.1897 and 17.6974 and 13.2972 and 14.5082 and 22.6242 and 9.617 | Cer 18:1/20:0 content of gastrocnemius muscle ([1]; HFD + P053, individual mice): 1.3 and 0.9773 and 1.039 and 0.7088 and 1.3618 and 1.151 and 0.5199 and 0.8084 and 1.045 and 0.6734 | Cer 18:1/22:0 content of gastrocnemius muscle ([1]; HFD + P053, individual mice): 6.663 and 2.886 and 2.627 and 3.138 and 3.9433 and 5.15 and 2.442 and 3.877 and 4.12 and 2.291 | Cer 18:1/24:0 content of gastrocnemius muscle ([1]; HFD + P053, individual mice): 8.75 and 4.723 and 4.013 and 4.317 and 4.82 and 10.8999 and 3.077 and 4.318 and 7.266 and 2.309 | Cer 18:1/24:1 content of gastrocnemius muscle ([1]; HFD + P053, individual mice): 11.3105 and 7.675 and 5.851 and 7.272 and 9.129 and 11.5338 and 5.462 and 9.029 and 11.0555 and 5.753 | Cer 18:2/18:0 content of gastrocnemius muscle ([1]; HFD + P053, individual mice): 0.4484 and 0.4926 and 0.3634 and 0.4132 and 0.2765 and 0.3608 and 0.2849 and 0.2673 and 0.3042 and 0.2757 | HexCer 18:1/16:0 content of gastrocnemius muscle ([1]; HFD + P053, individual mice): 0.07083 and 0.2298 and 0.1257 and 0.1094 and 0.2809 and 0.09552 and 0.04859 and 0.09042 and 0.2927 and 0.128 | HexCer 18:1/18:0 content of gastrocnemius muscle ([1]; HFD + P053, individual mice): 0.6278 and 2.316 and 1.725 and 1.053 and 1.514 and 0.3784 and 1.339 and 1.2334 and 3.411 and 0.7622 | HexCer 18:1/20:0 content of gastrocnemius muscle ([1]; HFD + P053, individual mice): 1.025 and 3.657 and 4.193 and 2.559 and 2.728 and 0.775 and 2.303 and 1.6216 and 6.493 and 1.535 | HexCer 18:1/22:0 content of gastrocnemius muscle ([1]; HFD + P053, individual mice): 7.522 and 16.4106 and 20.0443 and 14.4231 and 12.9484 and 5.248 and 12.5609 and 13.236 and 35.9679 and 8.484 | HexCer 18:1/22:1 content of gastrocnemius muscle ([1]; HFD + P053, individual mice): 0.5466 and 1.486 and 1.3 and 1.291 and 1.104 and 0.193 and 0.8615 and 0.6275 and 2.662 and 0.7906 | HexCer 18:1/24:0 content of gastrocnemius muscle ([1]; HFD + P053, individual mice): 35.0734 and 65.2406 and 70.8422 and 52.1762 and 47.7217 and 19.7676 and 40.4927 and 43.8786 and 131.229 and 26.1187 | HexCer 18:1/24:1 content of gastrocnemius muscle ([1]; HFD + P053, individual mice): 11.8966 and 34.458 and 33.6892 and 26.2534 and 24.7881 and 7.796 and 20.5958 and 23.2933 and 61.9739 and 13.7499 | SM 34:1 content of gastrocnemius muscle ([1]; HFD + P053, individual mice): 32.5351 and 75.4148 and 64.2595 and 68.4699 and 74.2315 and 69.3058 and 56.8022 and 63.1231 and 40.9981 and 91.0819 | SM 34:2 content of gastrocnemius muscle ([1]; HFD + P053, individual mice): 1.53 and 2.835 and 1.998 and 2 and 2.418 and 2.144 and 2.133 and 2.338 and 2.209 and 2.34 | SM 36:1 content of gastrocnemius muscle ([1]; HFD + P053, individual mice): 125.344 and 223.512 and 246.64 and 236.8 and 200.399 and 135.056 and 273.936 and 199.397 and 141.624 and 291.891 | SM 36:2 content of gastrocnemius muscle ([1]; HFD + P053, individual mice): 1.77 and 3.547 and 2.905 and 2.734 and 5.421 and 3.741 and 3.767 and 2.494 and 1.973 and 4.895 | SM 40:1 content of gastrocnemius muscle ([1]; HFD + P053, individual mice): 74.9293 and 89.7182 and 104.131 and 44.9676 and 58.8143 and 74.268 and 90.7758 and 60.0553 and 174.22 and 68.0463 | SM 42:1 content of gastrocnemius muscle ([1]; HFD + P053, individual mice): 42.7745 and 43.392 and 45.2063 and 34.368 and 60.6982 and 34.7124 and 28.1104 and 34.3376 and 109.833 and 16.1089 | SM 42:2 content of gastrocnemius muscle ([1]; HFD + P053, individual mice): 124.791 and 220.201 and 175.989 and 144.772 and 171.488 and 135.796 and 111.009 and 132.926 and 406.752 and 102.287 | fasting insulin and glucose tolerance [2]: no impact | iAUC for the labelled glucose load [2]: no effect | expression of Gabp1α and Nfe2l2 [3]: significantly increased | genes encoding respiratory complex subunits (Co-2, Cytb, Atp6, Ndufb5, Atp5o, Cycs, Cox5b) [3]: significant up-regulation | mitochondrial DNA content [4]: elevated
